# Experimental data taken from patent publication US9713613B2, “Methods and compositions for the treatment of cancer and related hyperproliferative disorders” (priority 2007, dated 2017).
# Entries after “also recorded” stand apart in the source; their conditions may differ.
# System: ob/ob mice
# Assay: ob/ob mice, four weeks daily ip treatment
# Format: in vivo
# Method: The study employed 4-5 week old male ob/ob mice of average weight of about 23 g/mouse. Fatostatin A (30 mg/kg/day) was delivered intraperitoneally daily, and body weight and food intake were measured. […] At the end of first week of treatment ob control mice injected with DMSO gained on average of 4.82 g/mouse (from 23.58±0.62 to 28.40±1.45), whereas the fatostatin treated group gained about 3.37 g/mouse (23.08±1.53 to 26.45±1.2 g/mouse), (p=0.03). After 28 days of treatment the fatostatin A treated group weighed about 12% less than the controls weeks (32.1±1.4 compared to 36.2±2.2 g/mouse […]) (P=0.02). The accumulative food intake was similar in both groups FIG. 8C).
# Four- to 5-week old homozygous male obese (ob/ob) mice (C57BL/6J, The Jackson Laboratory, Bar Harbor, Me.) were housed under controlled conditions (12-hr light/dark cycle; 25° C.). The animals were housed 5 per cage and had ad libitum access to standard laboratory chow (Purina Mills, Richmond Ind.) and water for one week after their arrival. On first day of the experiment and every day thereafter the weight of the mice and the amount of the food consumed were measured. The weight of mice and food remaining were measured daily between 3-5 p.m. before the ip injection of fatostatin A (30 mg/kg; 150 μL). The administration of Fatostatin A or 10% DMSO in PBS to control groups (n=5) continued daily for four weeks till the end of the study.
# After 28 days of daily injection of fatostatin A mice were fasted overnight and blood was withdrawn and Whole blood glucose and 3-hydroxybutyrate were measured with a Glucometer Precision Xtra (Abbott). For determination of serum constituents. Glucose, triglyceride and cholesterol measurements were done by the Comparative Pathology Laboratory (Baylor College of Medicine). Serum non-esterified fatty acids (NEFA) were measured by using NEFA C kit (Wako Chemicals, Richmond, Va.).
# Mice were sacrificed and weights of livers, and Epididymal fat pads were determined. Frozen sections of Liver slices from individual animals were stained with Oil Red O to visualize the fat droplets (TG) in liver slices as described earlier (Abu-Elheiga et al., 2001). The remaining liver tissues were frozen in liquid nitrogen and kept at −80° C. for further analysis.
# Liver triglyceride and cholesterol contents were carried out as described in the reference (Chandler, et al., 2003) using Cholesterol E Kit (Wako) and Infinity Triglyceride Kit (Thermo Electron, Melbourne, Australia), adapted for colorimetric analysis in 96-well plate format.
# A portion of the frozen liver was ground to powder in liquid nitrogen. The powdered tissues were suspended in 10 ml of PBS containing 0.1 mM PMSF, 5 mM benzamidine, and 5 mg/ml protease inhibitor cocktail (Roche), and homogenized using Polytron (3×30 Sec, at high speed) and sonicated briefly to degrade DNA. The extracts were clarified by centrifugation at 16,000×g for 20 min. Protein concentrations in the supernatant were determined, and subjected to western blot analysis using commercially available antibodies against the following enzymes: FAS (BD Biosciences), citrate lyase SCD1, FADS1, ACC and phospho-ACC antibodies. The proteins were visualized using Amersham ECL Plus™ Western Blotting Detection Reagents. The intensity of the specific bands of proteins of interest were scanned and normalized against beta-actin for quantifications. FAS and ACC activities from the liver extracts were determined as described earlier (Mao et al., 2006).
# Total RNA was prepared from mouse tissues using TRIzol reagent (Invitrogen). Equal amounts of RNA from 5 mice were pooled and treated with DNase I (Turbo DNA-free, Ambion, Inc.). First stranded cDNA was synthesized from 2 μg of DNase I-treated total RNA with random hexamer primer using Superscript II RNase H-reverse transcriptase (Invitrogen). […]
# [1] = western blot, normalized to actin
compound,measurement,setting,value
"CCCc1cc(-c2nc(-c3ccc(C)cc3)cs2)ccn1 [Compound 1, 2-propyl-4-(4-p-tolylthiazol-2-yl)pyridine]",toxicity during the treatment,"30 mg/kg ip daily, four weeks",no obvious toxicity
same,body weight gain at the end of first week,"30 mg/kg/day ip, control 4.82",about 3.37 g/mouse
same,body weight at the end of first week,"30 mg/kg/day ip, from 23.08±1.53",26.45±1.2 g/mouse
same,decrease in serum HDL,28 days,about 22%
same,decrease in serum LDL,28 days,about 35%
same,increase of VLDL,28 days,about 50%
same,serum non esterified free fatty acids (NEFA) higher than controls,28 days,about 70%
same,serum triglycerides (TG) increase compared to controls,28 days,about 30%
same,ketone bodies (hydroxy butyrate) increase compared to controls,"28 days, blood, listed as fatostatin A",increased about seven fold; also recorded: seven fold increase
same,serum glucose,"28 days, fasted mice, control 429.4±87",153.2 ± 30.5 mg/dL
same,serum glucose lower than controls,"28 days, fasted mice, listed as fatostatin",~70%
same,serum glucose lower than controls,"28 days, fasted mice, listed as fatostatin A",about 70%
same,ketone bodies (hydroxy butyrate),"28 days, control 0.5±0.37",3.62 ± 1.41 mg/dL
same,serum NEFA,"28 days, control 0.7±0.2",1.93±0.26 mEq/l
same,serum LDL,"28 days, control 48±8",31±3
same,serum triglycerides (TG),"28 days, control 79±12",115±11
same,serum HDL,"28 days, control 183±12",144±11
same,serum total cholesterol,"28 days, control 219±18",183 ± 16 mg/dL
same,body weight less than controls,after 28 days of treatment,about 12%
same,body weight,"after 28 days of treatment, control 36.2±2.2",32.1±1.4 g/mouse
same,food intake,"average over 28 days, control 5.9±1.4",5.4±1.5 g/mouse·day
same,VLDL,"calculated based on TG levels, control 15.8±2.4",23.1 ± 2.3 mg/dL
same,average daily food intake,control 5.9+1.4,5.4+1.5 g/mouse/d
same,average weight of epididymal fat pads less than controls,four weeks,about 20%
same,decrease of ACC activity in liver extracts,four weeks,about 40%
same,reduction of FAS activity in liver extracts,four weeks,more than 70%
same,reduction of TG levels in livers,four weeks,about 65%
same,reduction of cholesterol levels in liver,four weeks,more than 20%
same,average weight of livers,"four weeks, control 2.34±0.15",1.59±0.2
same,cholesterol levels in liver,"four weeks, control 3.6±0.1",2.8±0.5
same,average weight of epididymal fat pads,"four weeks, control 3.6±0.2",2.7±0.1
same,ACC activity in liver extracts,"four weeks, control 5.55±0.57",3.44±0.44 n mol/min·mg
same,FAS activity in liver extracts,"four weeks, control 22.6±1.37",8.64±1.91 n mol/min·mg
same,TG levels in livers,"four weeks, control 38.7±6.0",14.8±3.7 mg/gram liver
same,average weight of livers less than controls,"four weeks, listed as fatostatin",~32%
same,average weight of livers less than controls,"four weeks, listed as fatostatin A",about 32%
same,reduction of PPAR γ mRNA level in liver,real time PCR,about 40%
same,"reduction in the mRNA levels of ACC1, FAS and SCD1 in liver","real time PCR, normalized to actin",about 80%
same,protein level of FADS 1 or Δ5 Desaturase in liver,western blot,did not change
same,reduction of ACL protein level in liver extracts,[1],about 70%
same,reduction of SCD1 protein level in liver extracts,[1],about 50%
